One compound from patent EP2439195B1, “NAPHTHALENE CARBOXAMIDE DERIVATIVES AS INHIBITORS OF PROTEIN KINASE AND HISTONE DEACETYLASE, PREPARATION METHODS AND USES THEREOF” (Shenzhen Chipscreen Biosciences, Ltd., priority 2009, dated 2010) can be followed below.

Common to all, as to format: in vivo
One series has as its system human A549 lung cancer. Description: Nude mice tumor transplanted from human A549 lung cancer (Example 51). Conditions: 40 mg/kg orally once a day for 24 days. As for the experimental part:
Then the cultured A549 human lung cancer cells were implanted into the armpit of 50 mice. […] Each group had 8 mice. One group was treated with vehicle. One group was treated with Sutent, the positive control drug. […] Each group was dosed orally once a day for 24 days. Tumor volumes along with body weights were recorded twice per week. On the next day after 24 doses, the mice were killed, and tumors were weighed. The tumor growth inhibition of each group was calculated using the following formula: {[(the average tumor weight of control group)-(the average tumor weight of test group)]/(the average tumor weight of control group)}×100%.

Series [1] concerns human HCT-8 colon cancer. Description: Nude mice tumor transplanted from human HCT-8 colon cancer (Example 52). Conditions: 40 mg/kg orally once a day. As for the experimental part:
Female nu/nu mice of 18∼20g were fed by normal diet for 3 days. Then the cultured HCT-8 human colon cancer cells were implanted into the armpit of 50 mice. […] Each group had 8 mice. One group was treated with vehicle. One group was treated with Sutent, the positive control drug. […] Each group was dosed orally once a day for 24 days. Tumor volumes along with body weights were recorded twice per week. On the next day after 20 doses, the mice were killed, and tumors were weighed. The tumor growth inhibition of each group was calculated using the following formula: {[([…])} × 100%. [formula] The experimental results are shown in Table 6 and Figure 2.

In series [2] the test system is SSMC7721 human liver cancer cells. Description: Nude mice tumor transplanted from human SSMC7721 liver cancer (Example 53). Conditions: 40 mg/kg orally once a day for 24 days. As for the experimental part: Female nu/nu mice of 18∼20g were fed by normal diet for 3 days. Then the cultured SSMC7721 human liver cancer cells were implanted into the armpit of 50 mice. […] One group was treated with vehicle. One group was treated with Sutent, the positive control drug. […] Each group was dosed orally once a day for 24 days. […] The tumor growth inhibition of each group was calculated using the following formula: {[([…])} × 100%. [formula] The experimental results are shown in Table 7 and Figure 3.

In series [3] the test system is human HCT-8 colon cancer. Description: Nude mice tumor transplanted from human HCT-8 colon cancer (Example 54). Conditions: 40 mg/kg orally once a day for 20 days. As for the experimental part:
(§1) Female nu/nu mice of 18∼20g were fed by normal diet for 3 days. Then the cultured HCT-8 human colon cancer cells were implanted into the armpit of 50 mice. […] Each group had 8 mice. One group was treated with vehicle. One group was treated with Sutent, the positive control drug. Two groups were treated with compound 33 at different concentrations. The other two groups were treated with compound 34 at different concentrations. Each group was dosed orally once a day for 20 days. […] The tumor growth inhibition of each group was calculated using the following formula: {[(the average tumor weight of control group)-(the average tumor weight of test group)]/(the average tumor weight of control group)} × 100%. [formula] The experimental results are shown in Table 8 and Figure 4.

For series [4], the system named is human SSMC7721 liver cancer. Description: Nude mice tumor transplanted from human SSMC7721 liver cancer (Example 56). Conditions: 40 mg/kg orally once a day for 30 days. As for the experimental part:
as §1, with “cultured SSMC7721” for “cultured HCT-8”, “human liver” for “human colon”, “compound 37” for “compound 34”, “for 30” for “for 20”, “Table 10” for “Table 8”, “Figure 6. Table10” for “Figure 4.”

Each structure is given as a SMILES string.

With `CCN(CC)CCNC(=O)c1c(C)[nH]c(/C=C2\C(=O)Nc3ccc(F)cc32)c1C` [Sutent, sunitinib, reference compound], the “Tumor weight” value in the series with human A549 lung cancer came to 2.06 ± 0.71 g; in the series with human HCT-8 colon cancer [1] (killed after 20 doses), 0.23 ± 0.07 g; in series [2], 1.00 ± 0.68 g; with human HCT-8 colon cancer [3] it was 0.44 ± 0.15 g; in series [4], 0.88 ± 0.39 g. Also, the “Body weight (g) end” value with human A549 lung cancer (end) is 24.4 ± 2.3 g; with human HCT-8 colon cancer [1] (end), 22.4 ± 1.1 g; in series [2] (end) it was 24.8 ± 1.2 g; in the series with human HCT-8 colon cancer [3] (end) it was 22.1 ± 1.5 g; in series [4] (end) it was 24.0 ± 0.6 g. In addition, the “Body weight (g) start” value in the series with human A549 lung cancer (start) came out at 20.3 ± 1.4 g; in the series on human HCT-8 colon cancer [1] (start), 21.5 ± 0.7 g; in series [2] (start), 21.0 ± 0.8 g; in the series on human HCT-8 colon cancer [3] (start), 20.6 ± 1.2 g; in series [4] (start) it was 21.2 ± 1.1 g. The “TGI (%)” value in the series with human A549 lung cancer (tumor growth inhibition) was 50.9%; in the series on human HCT-8 colon cancer [1] (tumor growth inhibition), 95.3%; in series [2] (tumor growth inhibition), 70.3%; in the series with human HCT-8 colon cancer [3] (tumor growth inhibition), 89.1%; in series [4] (tumor growth inhibition) it was 61.1%.
